We go through three compounds from ChEMBL document CHEMBL1125524, “Adenosine A1 antagonists. 2. Structure-activity relationships on diuretic activities and protective effects against acute renal failure” (J Med Chem, 1992).

Assay [1] concerns Rattus norvegicus. Put plainly: Serum creatinine concentration measured after intraperitoneal administration of 1 mg/kg of compound to rats(vehicle 4.74+/-0.31). Format: functional.
The test system of assay [2] is Rattus norvegicus. Put plainly: Serum creatinine concentration measured after intraperitoneal administration of 0.1 mg/kg of compound to rats(vehicle 6.90+/-0.20). Format: functional.
In assay [3] the test system is Rattus norvegicus. Description: Effect on urinary excretion potassium and sodium after oral administration of 0.1 mg/kg to rats(potassium and sodium excretion in control rat is 0.180+/-0.017). It counts as functional, Urine.
The subject of assay [4] is Rattus norvegicus. Put plainly: Effect on urinary excretion potassium and sodium after oral administration of 0.4 mg/kg to rats(potassium and sodium excretion in control rat is 0.191+/-0.020). Format: functional, Urine.
The test system of assay [5] is Rattus norvegicus. Description: Effect on urinary excretion potassium and sodium after oral administration of 1.6 mg/kg to rats(potassium and sodium excretion in control rat is 0.174+/-0.013). Format: functional, Urine.
Assay [6] has as its system Rattus norvegicus. Description: Urea nitrogen concentration measured after intraperitoneal administration of 1 mg/kg of compound to rats(vehicle 139.8+/-7.8). It counts as functional.
Assay [7] deals with Rattus norvegicus. Description: Percent inhibition of serum creatinine by the compound given as ratio of Cr value in treated to vehicle treated ones after intraperitoneal administration of 1 mg/kg of compound to rats(vehicle 4.74+/-0.31). Format: functional. Conditions: ip.
In assay [8] the test system is Rattus norvegicus. Description: Ratio of urinary excretion value (urinary volume) in treated rats to that in control rats, at a peroral dose of 0.1 mg/Kg. Format: functional, Urine.
Assay [9] deals with Rattus norvegicus. Description: Ratio of urinary excretion value (urinary volume) in treated rats to that in control rats, at a peroral dose of 0.4 mg/Kg. It counts as functional, Urine.
Assay [10] deals with Rattus norvegicus. Description: Ratio of urinary excretion value (urinary volume) in treated rats to that in control rats, at a peroral dose of 1.6 mg/Kg. It counts as functional, Urine.
Assay [11] relates to Rattus norvegicus. Description: Ratio of sodium ion/potassium ion concentration in treated rats to that in control rats, at a peroral dose of 0.1 mg/Kg. Format: functional.
Assay [12] has as its system Rattus norvegicus. Put plainly: Ratio of sodium ion/potassium ion concentration in treated rats to that in control rats, at a peroral dose of 0.4 mg/Kg. It counts as functional.
For assay [13], the system named is Rattus norvegicus. Description: Ratio of sodium ion/potassium ion concentration in treated rats to that in control rats, at a peroral dose of 1.6 mg/Kg. It counts as functional.
Assay [14] deals with Rattus norvegicus. Put plainly: Ratio of urinary excretion value (Na+ concentration) in treated rats to that in control rats, at a peroral dose of 0.1 mg/Kg. Format: functional, Urine.
Assay [15] has as its system Rattus norvegicus. Put plainly: Ratio of urinary excretion value (Na+ concentration) in treated rats to that in control rats, at a peroral dose of 0.4 mg/Kg. Format: functional, Urine.
Assay [16] deals with Rattus norvegicus. Put plainly: Ratio of urinary excretion value (Na+ concentration) in treated rats to that in control rats, at a peroral dose of 1.6 mg/Kg. Format: functional, Urine.
Assay [17] deals with Rattus norvegicus. Put plainly: Percent inhibition of serum creatinine by the compound given as ratio of Cr value in treated to vehicle treated ones after intraperitoneal administration of 0.1 mg/kg of compound to rats(vehicle 6.90+/-0.20). It counts as functional. Conditions: ip.
Assay [18] has as its system Rattus norvegicus. Put plainly: Oral diuretic activity was measured after oral administration of 0.4 mg/kg to rats(control volume is 1.15+/-0.17). It counts as functional, Urine.
For assay [19], the system named is Rattus norvegicus. Description: Oral diuretic activity was measured after oral administration of 1.6 mg/kg to rats(control volume is 0.86+/-0.09). It counts as functional, Urine.
The subject of assay [20] is Rattus norvegicus. Description: Urea nitrogen concentration measured after intraperitoneal administration of 0.1 mg/kg of compound to rats(vehicle 171.3+/-6.4). Format: functional.
Assay [21] has as its system Rattus norvegicus. Description: Oral diuretic activity was measured after oral administration of 0.1 mg/kg to rats(control volume is 1.05+/-0.11). It counts as functional, Urine.
The subject of assay [22] is Rattus norvegicus. Description: Percent inhibition of Urea nitrogen by the compound given as ratio of UN value in treated to vehicle treated ones after intraperitoneal administration of 1 mg/kg of compound to rats(vehicle 139.8+/-7.8). Format: functional. Conditions: ip.
Assay [23] concerns Rattus norvegicus. Description: Percent inhibition of Urea nitrogen by the compound given as ratio of UN value in treated to vehicle treated ones after intraperitoneal administration of 0.1 mg/kg of compound to rats(vehicle 171.3+/-6.4). Format: functional. Conditions: ip.
The target in another assay is T1, Adenosine receptor A1 (Cavia porcellus, UniProt P47745).
T1 sequence (P47745 whole entry): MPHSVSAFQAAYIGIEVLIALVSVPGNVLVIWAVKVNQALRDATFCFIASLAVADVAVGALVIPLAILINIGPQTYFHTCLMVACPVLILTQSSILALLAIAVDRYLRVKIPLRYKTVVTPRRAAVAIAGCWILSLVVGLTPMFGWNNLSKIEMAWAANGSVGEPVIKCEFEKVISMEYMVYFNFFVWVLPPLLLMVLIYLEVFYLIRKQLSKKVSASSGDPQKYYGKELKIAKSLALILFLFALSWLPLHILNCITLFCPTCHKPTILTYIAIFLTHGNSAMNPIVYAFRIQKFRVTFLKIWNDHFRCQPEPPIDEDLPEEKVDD

The target in a further assay is Adenosine A2 receptor (Rattus norvegicus, UniProt P29276+P30543).
Assay [24] has as its system Rattus norvegicus. Description: Serum creatinine concentration measured after intraperitoneal administration of 1 mg/kg of compound to rats(vehicle 4.70+/-0.17). Format: functional.
Assay [25] deals with Rattus norvegicus. Put plainly: Serum creatinine concentration measured after intraperitoneal administration of 10 mg/kg of compound to rats(vehicle 4.41+/-0.16). It counts as functional.
Assay [26] has as its system Rattus norvegicus. Put plainly: Percent inhibition of serum creatinine by the compound given as ratio of Cr value in treated to vehicle treated ones after intraperitoneal administration of 1 mg/kg of compound to rats(vehicle 4.70+/-0.17). Format: functional. Conditions: ip.
In assay [27] the test system is Rattus norvegicus. Description: Percent inhibition of serum creatinine by the compound given as ratio of Cr value in treated to vehicle treated ones after intraperitoneal administration of 10 mg/kg of compound to rats(vehicle 4.41+/-0.16). Format: functional. The note with it: ip.
Assay [28] concerns Rattus norvegicus. Description: Ratio of urinary excretion value (urinary volume) in treated rats to that in control rats, at a peroral dose of 25 mg/Kg. It counts as functional, Urine.
Assay [29] concerns Rattus norvegicus. Put plainly: Urea nitrogen concentration measured after intraperitoneal administration of 1 mg/kg of compound to rats(vehicle 154.2+/-5). It counts as functional.
The subject of assay [30] is Rattus norvegicus. Description: Ratio of sodium ion/potassium ion concentration in treated rats to that in control rats, at a peroral dose of 25 mg/Kg. Format: functional.
Assay [31] relates to Rattus norvegicus. Description: Ratio of urinary excretion value (Na+ concentration) in treated rats to that in control rats, at a peroral dose of 25 mg/Kg. Format: functional, Urine.
Assay [32] concerns Rattus norvegicus. Put plainly: Ratio of urinary excretion value (Na+ concentration) in treated rats to that in control rats, at a peroral dose of 6.25 mg/Kg. Format: functional, Urine.
For assay [33], the system named is Rattus norvegicus. Put plainly: Effect on urinary excretion potassium and sodium after oral administration of 25 mg/kg to rats(potassium and sodium excretion in control rat is 0.180+/-0.014). It counts as functional, Urine.
The subject of assay [34] is Rattus norvegicus. Description: Oral diuretic activity was measured after oral administration of 25 mg/kg to rats(control volume is 1.21+/-0.08). It counts as functional, Urine.
Assay [35] concerns Rattus norvegicus. Put plainly: Urea nitrogen concentration measured after intraperitoneal administration of 10 mg/kg of compound to rats(vehicle 145.1+/-7.4). Format: functional.
For assay [36], the system named is Rattus norvegicus. Description: Percent inhibition of Urea nitrogen by the compound given as ratio of UN value in treated to vehicle treated ones after intraperitoneal administration of 10 mg/kg of compound to rats(vehicle 145.1+/-7.4). Format: functional. Conditions: ip.
The test system of assay [37] is Rattus norvegicus. Put plainly: Percent inhibition of Urea nitrogen by the compound given as ratio of UN value in treated to vehicle treated ones after intraperitoneal administration of 1 mg/kg of compound to rats(vehicle 154.2+/-5). Format: functional. The note with it: ip.
Assay [38] relates to Rattus norvegicus. Description: Ratio of urinary excretion value (urinary volume) in treated rats to that in control rats, at a peroral dose of 6.25 mg/Kg. Format: functional, Urine.
Assay [39] relates to Rattus norvegicus. Description: Serum creatinine concentration measured after intraperitoneal administration of 10 mg/kg of compound to rats(vehicle 3.22+/-0.35). It counts as functional.
For assay [40], the system named is Rattus norvegicus. Put plainly: Percent inhibition of serum creatinine by the compound given as ratio of Cr value in treated to vehicle treated ones after intraperitoneal administration of 10 mg/kg of compound to rats(vehicle 3.22+/-0.35). Format: functional. The note with it: ip.
In assay [41] the test system is Rattus norvegicus. Description: Percent inhibition of Urea nitrogen by the compound given as ratio of UN value in treated to vehicle treated ones after intraperitoneal administration of 10 mg/kg of compound to rats(vehicle 110.7+/-9.4). It counts as functional. The note with it: ip.

The structures appear in SMILES notation.

Description for Adenosine receptor A1: Binding affinity against adenosine A1 receptor in guinea pig forebrain membranes using N6-[3H]cyclohexyladenosine as radioligand

What is called inhibition in vivo is the change of the read-out against control, counted positive when it falls. By Ki is commonly meant the equilibrium dissociation constant of an inhibitor or competing ligand from its target. With `CCn1c(=O)c2nc(C3CCCC3)[nH]c2n(CC)c1=O`, the Cr amounted to 2.28 mg/dL in the assay with Rattus norvegicus [1] and 5.48 mg/dL in the assay with Rattus norvegicus [2]. In addition, the Na with Rattus norvegicus [3] is 0.206 m equiv 6hr-1 100g-1; in the assay on Rattus norvegicus [4], 0.342 m equiv 6hr-1 100g-1; in the assay on Rattus norvegicus [5] it was 0.24 m equiv 6hr-1 100g-1. For the same compound, the UN with Rattus norvegicus [6] was 65.5 mg/dL; in the assay on Rattus norvegicus [20], 143.9 mg/dL. For the same compound, the inhibition in vivo at 1 mg/kg with Rattus norvegicus [7] is 52%; in the assay with Rattus norvegicus [22], 53%. Further, the T/C with Rattus norvegicus [8] worked out at 1.03; in the assay with Rattus norvegicus [9] it was 1.64; in the assay on Rattus norvegicus [10], 2.43; in the assay with Rattus norvegicus [14] it was 1.15; in the assay on Rattus norvegicus [15] it was 1.79; in the assay on Rattus norvegicus [16], 2.09. The “Na+/K+” value in the assay with Rattus norvegicus [11] is 1; with Rattus norvegicus [12], 1.54; with Rattus norvegicus [13], 1.56. For the same compound, the inhibition in vivo at 0.1 mg/kg with Rattus norvegicus [17] was found to be 21%; in the assay on Rattus norvegicus [23] it was 16%. In addition, the Urine volume in the assay with Rattus norvegicus [18] is listed as 1.89 ml 6hr-1 100g-1; in the assay with Rattus norvegicus [19], 2.09 ml 6hr-1 100g-1; with Rattus norvegicus [21] it was 1.09 ml 6hr-1 100g-1. The Ki at Adenosine receptor A1 worked out at 0.019 µM; on Adenosine A2 receptor, 0.44 µM.

As to `Cn1c(=O)c2c(ncn2C)n(C)c1=O` [CAFFEINE], the Cr in the assay on Rattus norvegicus [24] is 3.68 mg/dL; with Rattus norvegicus [25], 2.85 mg/dL. Besides, the inhibition in vivo at 1 mg/kg in the assay on Rattus norvegicus [26] was found to be 22%; with Rattus norvegicus [37] it was 18%. The inhibition in vivo at 10 mg/kg in the assay with Rattus norvegicus [27] amounted to 35%; in the assay with Rattus norvegicus [36] it was 25%. In addition, the T/C in the assay on Rattus norvegicus [28] was determined as 1.68; with Rattus norvegicus [31], 1.55; in the assay with Rattus norvegicus [32], 1.1; in the assay with Rattus norvegicus [38], 0.92. The UN in the assay on Rattus norvegicus [29] was determined as 125.7 mg/dL; in the assay with Rattus norvegicus [35], 109 mg/dL. Also, the “Na+/K+” value in the assay with Rattus norvegicus [30] is listed as 1.28. The same compound came in with a Na in the assay with Rattus norvegicus [33] of 0.28 m equiv 6hr-1 100g-1. In the assay with Rattus norvegicus [34], this compound had a Urine volume of 1.84 ml 6hr-1 100g-1.

In the assay with Rattus norvegicus [39], `NS(=O)(=O)c1cc(C(=O)O)c(NCc2ccco2)cc1Cl` [FUROSEMIDE] displayed a Cr of 4.17 mg/dL. The T/C in the assay with Rattus norvegicus [10] is 1; in the assay on Rattus norvegicus [28], 1.75; with Rattus norvegicus [16], 0.94; in the assay on Rattus norvegicus [31], 1.64; in the assay with Rattus norvegicus [32], 1.62; in the assay on Rattus norvegicus [38], 1.59. Moreover, the “Na+/K+” value in the assay on Rattus norvegicus [13] is given as 0.87; with Rattus norvegicus [30], 1.05. The inhibition in vivo at 10 mg/kg with Rattus norvegicus [40] was -30%; with Rattus norvegicus [41], -36%. Besides, the Urine volume with Rattus norvegicus [34] is recorded as 2.12 ml 6hr-1 100g-1.
